Results as given in publication PMC3467072 (Nucleic Acids Research, 2012).

Key:
Assay type in all cases: binding, Mycobacterium tuberculosis
Rv3066 mutant W80A = system: Rv3066 mutant W80A
Rv3066 mutant N112A = system: Rv3066 mutant N112A
Rv3066 mutant W131A = system: Rv3066 mutant W131A

CC[n+]1c(-c2ccccc2)c2cc(N)ccc2c2ccc(N)cc21 [ethidium, ethidium bromide]
three to four times: Decrease of affinity for ethidium binding, W80A versus wild-type (Rv3066 mutant W80A) | Decrease of affinity for ethidium binding, N112A versus wild-type (Rv3066 mutant N112A) | Decrease of affinity for ethidium binding, W131A versus wild-type (Rv3066 mutant W131A)
